For orientation: Cmax means the highest concentration seen after dosing. As a reminder, the inhibition is the relative decrease from the control value, in per cent. A word on the IC50: it is the concentration that inhibits the measured activity by half. A higher IC50 goes with a need for much substance.

We go through 3 molecules from publication PMC12621189, “Optimization of Selective and CNS Penetrant Alkyne-Based TREK Inhibitors: The Discovery and Characterization of ONO-9517601 (VU6022856) and ONO-7927846 (VU6024391)” (Journal of Medicinal Chemistry, 2025).

The nature of series [1]: Rat 4-day dosing general toxicity study. The conditions noted are these: at NOAEL doses, rat 4-day study.
Series [2] can be described thus: Plasma protein binding, mouse. Type of series: in vitro ADME. The conditions noted are these: bound; for fraction unbound at 6 h, 5 µM: mouse, plasma, pH 7.4, mouse plasma, read-out: PPB mouse (converted). As for the experimental part: (§1) Plasma protein binding and Brain homogenate binding: Determination of fraction unbound (f u) in plasma was conducted in vitro via equilibrium dialysis using HTDialysis (HTD) membrane plates. The top half of the plate was filled with 100 uL of Dubelco’s Phosphate Buffered Saline, pH 7.4 (DPBS). Compounds were diluted into plasma from each species (5 µM final concentration), which was aliquoted in triplicate to the ‘bottom half’ of the prepared HTD plate wells. The HTD plate was sealed and incubated for 6 hours at 37 °C. Following incubation, each well (both top and bottom halves) were transferred (20 µL) to the corresponding wells of a 96-shallow-well (V-bottom) plate. The daughter plates were then matrix-matched (DPBS side wells received equal volume of plasma, and plasma side wells received equal volume of DPBS), and extraction solution (120 µL; acetonitrile containing 50 nM carbamazepine as IS) was added to all wells of both daughter plates to precipitate protein and extract test article. The plates were then sealed and centrifuged (3500 rcf) for 10 minutes at ambient temperature. Supernatant (60 µL) from each well of the daughter plates was then transferred to the corresponding wells of new daughter plates (96-shallow-well, V bottom) containing water (Milli-Q, 60 µL/well), and the plates were sealed in preparation for LC-MS/MS analysis (see LC-MS/MS analysis method below).
(§2) The unbound fraction (f u) was calculated following the equation below, and mean values for each species were calculated from 3 replicates. […]
(§3) Fraction unbound for both plasma and brain samples was determined using Equation 4.
(§4) Equation 4 Determination of fraction unbound in plasma. […]

Series [3] has as its system 68 GPCRs, ion channels, and transporters. Kind of series: Eurofins Lead Profiling Panel, radioligand binding displacement. The conditions noted are these: 68 targets, 10 μM.
Series [4] can be described thus: IV/PO pharmacokinetic study, dog (beagle). Type of series: in vivo. The conditions noted are these: for clearance: beagle, dog, iv, read-out: CLp; for clearance / Vd / half-life / Cmax: plasma; for clearance / CLp / Vd / half-life: iv 1 mg/kg (10), 0.5 mg/kg (11); for Vd: read-out: Vss; for half-life: read-out: elimination t1/2 (converted); for Cmax / F (%) po: po 1 mg/kg.

Series [5] in a line: Plasma protein binding, human (equilibrium dialysis). Type of series: in vitro ADME. The conditions noted are these: pH 7.4, read-out: PPB human (converted). As for the experimental part: as §1, §2, §3, §4
Series [6] in a line: Brain homogenate binding, rat. The conditions noted are these: bound. The class given is in vitro ADME. As for the experimental part: (§5) concentration), which was aliquoted in triplicate to the ‘bottom half’ of the prepared HTD plate wells. The HTD plate was sealed and incubated for 6 hours at 37 °C. Following incubation, each well (both top and bottom halves) were transferred (20 µL) to the corresponding wells of a 96-shallow-well (V-bottom) plate. The daughter plates were then matrix-matched (DPBS side wells received equal volume of plasma, and plasma side wells received equal volume of DPBS), and extraction solution (120 µL; acetonitrile containing 50 nM carbamazepine as IS) was added to all wells of both daughter plates to precipitate protein and extract test article. […]
(§6) The unbound fraction (f u) was calculated following the equation below, and mean values for each species were calculated from 3 replicates.
(§7) A similar approach was used to determine the degree of brain homogenate binding, which employed the same methodology and procedure with the following modifications: 1) a final compound concentration of 1 μM was used, 2) naïve rat brains were homogenized in DPBS (1:3 composition of brain: DPBS, w/w) using a Mini-Bead Beater™ machine in order to obtain brain homogenate, which was then treated in the same manner as the plasma samples in the previously described plasma protein binding assay. Fraction unbound for both plasma and brain samples was determined using Equation 4. […]

Series [7] deals with Kir2.1 (Homo sapiens, UniProt P63252). Kind of series: MPC ion channel panel, Kir2.1. Type of series: cell-based.
The target of series [8] is CYP 2D6 (Homo sapiens, UniProt P10635). Kind of series: CYP450 inhibition 2D6. The class given is in vitro ADME.
A short description of series [9]: Brain homogenate binding, mouse. The class given is in vitro ADME. The conditions noted are these: bound. As for the experimental part: as §5, §6, §7

Molecules are shown by their SMILES. Where “and” joins values, the source holds several entries; their conditions need not be identical. Identical values can stand only once.

Kir2.1, sequence (P63252 whole entry): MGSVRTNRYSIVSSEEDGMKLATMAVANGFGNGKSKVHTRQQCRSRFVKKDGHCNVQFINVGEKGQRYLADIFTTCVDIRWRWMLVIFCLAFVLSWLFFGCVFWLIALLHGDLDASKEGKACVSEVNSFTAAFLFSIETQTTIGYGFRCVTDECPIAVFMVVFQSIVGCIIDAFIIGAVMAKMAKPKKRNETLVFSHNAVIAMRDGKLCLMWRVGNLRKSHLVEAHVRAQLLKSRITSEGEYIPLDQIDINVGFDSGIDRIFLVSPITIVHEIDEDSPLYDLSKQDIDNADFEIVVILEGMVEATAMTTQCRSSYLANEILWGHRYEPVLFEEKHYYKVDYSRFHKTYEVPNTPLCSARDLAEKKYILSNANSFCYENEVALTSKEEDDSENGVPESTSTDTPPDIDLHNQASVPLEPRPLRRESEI
CYP 2D6, sequence (P10635 whole entry): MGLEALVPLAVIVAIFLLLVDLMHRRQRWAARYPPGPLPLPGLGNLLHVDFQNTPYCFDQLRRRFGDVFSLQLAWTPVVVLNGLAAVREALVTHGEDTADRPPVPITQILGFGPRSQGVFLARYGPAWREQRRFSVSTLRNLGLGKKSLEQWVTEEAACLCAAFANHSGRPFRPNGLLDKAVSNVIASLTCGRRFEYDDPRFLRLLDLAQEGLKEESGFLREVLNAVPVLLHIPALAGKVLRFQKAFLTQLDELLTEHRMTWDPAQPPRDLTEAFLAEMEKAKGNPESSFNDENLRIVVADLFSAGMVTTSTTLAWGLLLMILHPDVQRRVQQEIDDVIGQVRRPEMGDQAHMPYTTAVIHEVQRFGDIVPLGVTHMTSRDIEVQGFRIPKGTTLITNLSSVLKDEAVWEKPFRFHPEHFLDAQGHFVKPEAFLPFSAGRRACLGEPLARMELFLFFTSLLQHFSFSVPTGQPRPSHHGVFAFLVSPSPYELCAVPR

On to `CC(=O)N1CCC(n2ncc(Cl)c2C(=O)Nc2ncc(C#Cc3ccccc3)cc2C)CC1` [Compound 10, 1-(1-Acetylpiperidin-4-yl)-4-chloro-N-(3-methyl-5-(phenylethynyl)pyridin-2-yl)-1H-pyrazole-5-carboxamide], for which the “safety margin based on the AUC” value in [1] is “more than 10 fold”. Also, the fraction unbound at 6 h, 5 µM in series [2] is 0.018. Also, the “targets with >50% inhibition in Lead Profiling Panel” value in series [3] was “only two targets displayed >50% inhibition”. Also, in series [4], the clearance was less than 2 mL/min/kg, the CLp was 1.9 mL/min/kg, the Vd amounted to 5.9 L/kg and the half-life was 56 h. Besides, in [4], the peak level (Cmax) was 315 ng/mL and the “F (%) po” value is recorded as 97%. The fraction unbound at 6 h, 5 µM in [5] is 0.01. Moreover, in series [6], the BHB rat was 99.5% and 99.5, 99.5%. In series [7], this molecule returned an inhibition at 10 µM not above 50%. Moreover, half-maximal inhibition in [8] (IC50) was put at 10.3 µM. Moreover, the BHB mouse in series [9] is 99.5% and 99.5, 99.5%.

Consider `CC(=O)N1CC[C@@H](n2ncc(Cl)c2C(=O)Nc2ncc(C#Cc3ccc(F)cc3)cc2C)[C@H](F)C1` [Compound 11, 1-((3R,4R)-1-Acetyl-3-fluoropiperidin-4-yl)-4-chloro-N-(5-((4-fluorophenyl)ethynyl)-3-methylpyridin-2-yl)-1H-pyrazole-5-carboxamide], for which, in [1], the “safety margin based on the AUC” value was “more than 10 fold”. Moreover, in [3], the “targets with >50% inhibition in Lead Profiling Panel” value is reported as “only two targets displayed >50% inhibition”. Moreover, in [4], the clearance is less than 2 mL/min/kg, the CLp is 1.5 mL/min/kg, the Vd was 7.1 L/kg and the half-life is 76 h. In [4], the Cmax is 263 ng/mL and the “F (%) po” value stood at 100%. Moreover, the fraction unbound at 6 h, 5 µM in series [5] is 0.048. Besides, the BHB rat in series [6] is 99.4%. In series [7], this molecule returned an inhibition at 10 µM not above 50%. The molecule further showed an IC50 in series [8] of 7 µM. In series [9], this molecule showed a BHB mouse of 99.5%.

`Cc1cc(C#Cc2ccccc2)cnc1NC(=O)c1c(Cl)cnn1[C@H]1CCOC1` [Compound 15a, (S)-4-Chloro-N-(3-methyl-5-(phenylethynyl)pyridin-2-yl)-1-(tetrahydrofuran-3-yl)-1H-pyrazole-5-carboxamide]: the PPB mouse in series [2] (mouse plasma) came out at 98.0%. Also, in [2], the fraction unbound at 6 h, 5 µM was approximately 0.02.
